The values that follow come from patent publication US8710045B2, “Agents for preventing and treating disorders involving modulation of the ryanodine receptors” (The Trustees of Columbia University in the City of New York, priority 2004, dated 2014).

Where two headings read alike, the source gives them in different places.

For one data set, the system named is EDL muscle. Nature of the data set: Isometric force production of isolated EDL muscle after chronic exercise. The class given is in vivo, mouse. As to conditions: stimulation frequencies greater than 80 Hz. The procedure: Intact muscle preparation: Immediately following a forced exercise session, each mouse was sacrificed by carbon dioxide inhalation and cervical dislocation. Blood was removed by intracardiac aspiration, spun down, and plasma was eluted and frozen in liquid nitrogen. 4-0 silk sutures were tied to the proximal and distal tendons of intact EDL and soleus muscles and the muscles were dissected free and placed in a modified Ringer's solution (140 mM NaCl, 5 mM KCl, 2.0 mM CaCl2, 2 mM MgCl2, 10 mM HEPES, 10 mM glucose, pH 7.4) bubbled with 100% O2. […] After perfusion with 35C Ringer's and equilibration for 10 minutes at a resting tension of 1 cN and a brief potentiation protocol, force-frequency relationships were measured, with 60 second delays between 800 ms stimulations at 40-150 Hz. […] Following stimulation, muscle length was determined at resting tension, and muscle dry weight was recorded.
Age and sex-matched WT mice were randomized to receive osmotic pumps containing either S107 or vehicle. […] Exercise capacity was assessed once a week by a level treadmill run to exhaustion during the nocturnal cycle of the mouse. […] Isometric force production was measured in EDL muscles in a tissue bath during field stimulation.

In data set [1] the target is T1, RyR1 (Mus musculus, UniProt E9PZQ0).
T1 construct: RyR1 was immunoprecipitated from soleus muscle homogenates of mice following 21 days of exercise; from tissue; host or cells: mouse hind-limb skeletal muscle (soleus, EDL; SR microsomes for bilayer recording)
In words: Analysis of ryanodine receptor complex from EDL after chronic exercise (immunoprecipitation, immunoblot). The class given is in vivo. The note with it: chronic exercise protocol. As for the experimental part: Analysis of Ryanodine Receptor Complex: 10 mg muscle samples were isotonically lysed. […] The samples were incubated with protein A Sepharose beads (Amersham Pharmacia) at 4° C. for 1 h, after which the beads were washed three times with buffer. Proteins were separated on SDS-PAGE gels (4-20% gradient) and transferred onto nitrocellulose membranes overnight (SemiDry transfer blot, Bio-Rad). After incubation with blocking solution (LICOR Biosciences, Lincoln Nebr.) to prevent non-specific antibody binding and a wash in Tris-buffered saline with 0.1% Tween-20, membranes were incubated for 1-2 h at room temperature with primary antibodies anti-calstabin (1:2500 in blocking buffer), anti-RyR (5029, 1:5,000), or anti-phospho-RyR2-pSer2809 (1:5000), which detects PKA-phosphorylated mouse RyR1-pSer2844 and RyR2-pSer2808, anti-PDE4D3 (1:1000). After three washes, membranes were incubated with infrared labeled secondary antibodies (1:10,000 dilution, LICOR Biosystems). Band densities were quantified using the Odyssey Infrared Imaging System (LICOR Biosciences).
Background: Immunoblotting shows a protein as a band on a membrane.

The target of data set [2] is T1, RyR1. In words: RyR1 single channel recording in planar lipid bilayers from exercised mice. The class given is in vivo. As to conditions: 90 nM [Ca2+]cis. The procedure:
RyR1 channels were reconstituted by spontaneous fusion of microsomes into the planar lipid bilayer (a mixture of phosphatidylethanolamine and phosphatidylserine in a 3:1 ratio, Avanti Polar Lipids). Planar lipid bilayers were formed across a 200 μm aperture in a polysulfonate cup (Warner Instruments, Inc.), which separated two bathing solutions (1 mM EGTA, 250/125 mM HEPES/Tris, 50 mM KCl, 0.5 mM CaCl2, pH 7.35 as cis solution and 53 mM Ba(OH)2, 50 mM KCl, 250 mM HEPES, pH 7.35 as trans solution). After incorporation, RyR1 channel activity was recorded continuously for at least 10 minutes. The concentration of free Ca^2+ in the cis chamber was calculated with WinMaxC program (version 2.50) (Bers, Patton et al. 1994). Single channel currents were recorded at 0 mV using the Axopatch 200A patch-clamp amplifier (Axon Instruments, USA) in gap-free mode, filtered at 1 kHz, and digitized at 10 kHz. Data acquisition was performed using Digidata 1322A and Axoscope 9 software (Axon Instruments, USA). The recordings were analyzed using Clampfit 10.1 (Molecular Devices, USA) and Origin software (ver. 6.0, Microcal Software, Inc., USA).
Chronic exercise results in leaky RyR1 Channels which can be reversed by calstabin1 rebinding: A critical issue is whether the biochemical changes in the RyR1 macromolecular complex identified during exercise result in changes in RyR1 channel activity. […]

In a further data set the test system is calpain. Nature of the data set: Calpain activity in mdx mouse muscular dystrophy model during exercise. The note with it: mdx mice, 0.125 mg/kg/h for 28 days, downhill treadmill. The class given is in vivo. As for the experimental part:
After treatment, the mice were subjected to downhill (14° angel) treadmill running for 30 min at 18 m/min. Immediately after the exercise, the animals were sacrificed and the skeletal muscles were harvested.
Preparation of EDL Homogenates: EDL muscles homogenates were prepared in 0.5 ml of homogenization buffer (20 mM NaF, 10 mM Tris-maleate, pH7.2+protease inhibitors). […] sarcoplasmic reticulum (CSR) fractions were obtained by centrifuging the homogenates at 50,000×g for 30 min. Homogenates were centrifuged at 4000×g for 20 min and the supernatants were centrifuged for 20 min at 10000×g. Aliquots of the homogenates were assayed for protein concentration and stored at −80° C.
Calpain Activity Assay: Calpain activity of EDL homogenates (30 μg) were measured using a Calpain Activity Assay kit (Calbiochem). The assay utilizes a synthetic calpain substrate, suc-LLVY-AMC. AMC is released upon cleavage with calpain and is measured fluorometrically. Assays are performed with both an activation and an inhibition buffer to determine specific calpain activity in the sample.

In the next data set the test system is RyR. Nature of the data set: Calstabin binding to RyR in brain after isoproterenol infusion (RyR immunoprecipitation, western blot).

T1 sequence (E9PZQ0 whole entry): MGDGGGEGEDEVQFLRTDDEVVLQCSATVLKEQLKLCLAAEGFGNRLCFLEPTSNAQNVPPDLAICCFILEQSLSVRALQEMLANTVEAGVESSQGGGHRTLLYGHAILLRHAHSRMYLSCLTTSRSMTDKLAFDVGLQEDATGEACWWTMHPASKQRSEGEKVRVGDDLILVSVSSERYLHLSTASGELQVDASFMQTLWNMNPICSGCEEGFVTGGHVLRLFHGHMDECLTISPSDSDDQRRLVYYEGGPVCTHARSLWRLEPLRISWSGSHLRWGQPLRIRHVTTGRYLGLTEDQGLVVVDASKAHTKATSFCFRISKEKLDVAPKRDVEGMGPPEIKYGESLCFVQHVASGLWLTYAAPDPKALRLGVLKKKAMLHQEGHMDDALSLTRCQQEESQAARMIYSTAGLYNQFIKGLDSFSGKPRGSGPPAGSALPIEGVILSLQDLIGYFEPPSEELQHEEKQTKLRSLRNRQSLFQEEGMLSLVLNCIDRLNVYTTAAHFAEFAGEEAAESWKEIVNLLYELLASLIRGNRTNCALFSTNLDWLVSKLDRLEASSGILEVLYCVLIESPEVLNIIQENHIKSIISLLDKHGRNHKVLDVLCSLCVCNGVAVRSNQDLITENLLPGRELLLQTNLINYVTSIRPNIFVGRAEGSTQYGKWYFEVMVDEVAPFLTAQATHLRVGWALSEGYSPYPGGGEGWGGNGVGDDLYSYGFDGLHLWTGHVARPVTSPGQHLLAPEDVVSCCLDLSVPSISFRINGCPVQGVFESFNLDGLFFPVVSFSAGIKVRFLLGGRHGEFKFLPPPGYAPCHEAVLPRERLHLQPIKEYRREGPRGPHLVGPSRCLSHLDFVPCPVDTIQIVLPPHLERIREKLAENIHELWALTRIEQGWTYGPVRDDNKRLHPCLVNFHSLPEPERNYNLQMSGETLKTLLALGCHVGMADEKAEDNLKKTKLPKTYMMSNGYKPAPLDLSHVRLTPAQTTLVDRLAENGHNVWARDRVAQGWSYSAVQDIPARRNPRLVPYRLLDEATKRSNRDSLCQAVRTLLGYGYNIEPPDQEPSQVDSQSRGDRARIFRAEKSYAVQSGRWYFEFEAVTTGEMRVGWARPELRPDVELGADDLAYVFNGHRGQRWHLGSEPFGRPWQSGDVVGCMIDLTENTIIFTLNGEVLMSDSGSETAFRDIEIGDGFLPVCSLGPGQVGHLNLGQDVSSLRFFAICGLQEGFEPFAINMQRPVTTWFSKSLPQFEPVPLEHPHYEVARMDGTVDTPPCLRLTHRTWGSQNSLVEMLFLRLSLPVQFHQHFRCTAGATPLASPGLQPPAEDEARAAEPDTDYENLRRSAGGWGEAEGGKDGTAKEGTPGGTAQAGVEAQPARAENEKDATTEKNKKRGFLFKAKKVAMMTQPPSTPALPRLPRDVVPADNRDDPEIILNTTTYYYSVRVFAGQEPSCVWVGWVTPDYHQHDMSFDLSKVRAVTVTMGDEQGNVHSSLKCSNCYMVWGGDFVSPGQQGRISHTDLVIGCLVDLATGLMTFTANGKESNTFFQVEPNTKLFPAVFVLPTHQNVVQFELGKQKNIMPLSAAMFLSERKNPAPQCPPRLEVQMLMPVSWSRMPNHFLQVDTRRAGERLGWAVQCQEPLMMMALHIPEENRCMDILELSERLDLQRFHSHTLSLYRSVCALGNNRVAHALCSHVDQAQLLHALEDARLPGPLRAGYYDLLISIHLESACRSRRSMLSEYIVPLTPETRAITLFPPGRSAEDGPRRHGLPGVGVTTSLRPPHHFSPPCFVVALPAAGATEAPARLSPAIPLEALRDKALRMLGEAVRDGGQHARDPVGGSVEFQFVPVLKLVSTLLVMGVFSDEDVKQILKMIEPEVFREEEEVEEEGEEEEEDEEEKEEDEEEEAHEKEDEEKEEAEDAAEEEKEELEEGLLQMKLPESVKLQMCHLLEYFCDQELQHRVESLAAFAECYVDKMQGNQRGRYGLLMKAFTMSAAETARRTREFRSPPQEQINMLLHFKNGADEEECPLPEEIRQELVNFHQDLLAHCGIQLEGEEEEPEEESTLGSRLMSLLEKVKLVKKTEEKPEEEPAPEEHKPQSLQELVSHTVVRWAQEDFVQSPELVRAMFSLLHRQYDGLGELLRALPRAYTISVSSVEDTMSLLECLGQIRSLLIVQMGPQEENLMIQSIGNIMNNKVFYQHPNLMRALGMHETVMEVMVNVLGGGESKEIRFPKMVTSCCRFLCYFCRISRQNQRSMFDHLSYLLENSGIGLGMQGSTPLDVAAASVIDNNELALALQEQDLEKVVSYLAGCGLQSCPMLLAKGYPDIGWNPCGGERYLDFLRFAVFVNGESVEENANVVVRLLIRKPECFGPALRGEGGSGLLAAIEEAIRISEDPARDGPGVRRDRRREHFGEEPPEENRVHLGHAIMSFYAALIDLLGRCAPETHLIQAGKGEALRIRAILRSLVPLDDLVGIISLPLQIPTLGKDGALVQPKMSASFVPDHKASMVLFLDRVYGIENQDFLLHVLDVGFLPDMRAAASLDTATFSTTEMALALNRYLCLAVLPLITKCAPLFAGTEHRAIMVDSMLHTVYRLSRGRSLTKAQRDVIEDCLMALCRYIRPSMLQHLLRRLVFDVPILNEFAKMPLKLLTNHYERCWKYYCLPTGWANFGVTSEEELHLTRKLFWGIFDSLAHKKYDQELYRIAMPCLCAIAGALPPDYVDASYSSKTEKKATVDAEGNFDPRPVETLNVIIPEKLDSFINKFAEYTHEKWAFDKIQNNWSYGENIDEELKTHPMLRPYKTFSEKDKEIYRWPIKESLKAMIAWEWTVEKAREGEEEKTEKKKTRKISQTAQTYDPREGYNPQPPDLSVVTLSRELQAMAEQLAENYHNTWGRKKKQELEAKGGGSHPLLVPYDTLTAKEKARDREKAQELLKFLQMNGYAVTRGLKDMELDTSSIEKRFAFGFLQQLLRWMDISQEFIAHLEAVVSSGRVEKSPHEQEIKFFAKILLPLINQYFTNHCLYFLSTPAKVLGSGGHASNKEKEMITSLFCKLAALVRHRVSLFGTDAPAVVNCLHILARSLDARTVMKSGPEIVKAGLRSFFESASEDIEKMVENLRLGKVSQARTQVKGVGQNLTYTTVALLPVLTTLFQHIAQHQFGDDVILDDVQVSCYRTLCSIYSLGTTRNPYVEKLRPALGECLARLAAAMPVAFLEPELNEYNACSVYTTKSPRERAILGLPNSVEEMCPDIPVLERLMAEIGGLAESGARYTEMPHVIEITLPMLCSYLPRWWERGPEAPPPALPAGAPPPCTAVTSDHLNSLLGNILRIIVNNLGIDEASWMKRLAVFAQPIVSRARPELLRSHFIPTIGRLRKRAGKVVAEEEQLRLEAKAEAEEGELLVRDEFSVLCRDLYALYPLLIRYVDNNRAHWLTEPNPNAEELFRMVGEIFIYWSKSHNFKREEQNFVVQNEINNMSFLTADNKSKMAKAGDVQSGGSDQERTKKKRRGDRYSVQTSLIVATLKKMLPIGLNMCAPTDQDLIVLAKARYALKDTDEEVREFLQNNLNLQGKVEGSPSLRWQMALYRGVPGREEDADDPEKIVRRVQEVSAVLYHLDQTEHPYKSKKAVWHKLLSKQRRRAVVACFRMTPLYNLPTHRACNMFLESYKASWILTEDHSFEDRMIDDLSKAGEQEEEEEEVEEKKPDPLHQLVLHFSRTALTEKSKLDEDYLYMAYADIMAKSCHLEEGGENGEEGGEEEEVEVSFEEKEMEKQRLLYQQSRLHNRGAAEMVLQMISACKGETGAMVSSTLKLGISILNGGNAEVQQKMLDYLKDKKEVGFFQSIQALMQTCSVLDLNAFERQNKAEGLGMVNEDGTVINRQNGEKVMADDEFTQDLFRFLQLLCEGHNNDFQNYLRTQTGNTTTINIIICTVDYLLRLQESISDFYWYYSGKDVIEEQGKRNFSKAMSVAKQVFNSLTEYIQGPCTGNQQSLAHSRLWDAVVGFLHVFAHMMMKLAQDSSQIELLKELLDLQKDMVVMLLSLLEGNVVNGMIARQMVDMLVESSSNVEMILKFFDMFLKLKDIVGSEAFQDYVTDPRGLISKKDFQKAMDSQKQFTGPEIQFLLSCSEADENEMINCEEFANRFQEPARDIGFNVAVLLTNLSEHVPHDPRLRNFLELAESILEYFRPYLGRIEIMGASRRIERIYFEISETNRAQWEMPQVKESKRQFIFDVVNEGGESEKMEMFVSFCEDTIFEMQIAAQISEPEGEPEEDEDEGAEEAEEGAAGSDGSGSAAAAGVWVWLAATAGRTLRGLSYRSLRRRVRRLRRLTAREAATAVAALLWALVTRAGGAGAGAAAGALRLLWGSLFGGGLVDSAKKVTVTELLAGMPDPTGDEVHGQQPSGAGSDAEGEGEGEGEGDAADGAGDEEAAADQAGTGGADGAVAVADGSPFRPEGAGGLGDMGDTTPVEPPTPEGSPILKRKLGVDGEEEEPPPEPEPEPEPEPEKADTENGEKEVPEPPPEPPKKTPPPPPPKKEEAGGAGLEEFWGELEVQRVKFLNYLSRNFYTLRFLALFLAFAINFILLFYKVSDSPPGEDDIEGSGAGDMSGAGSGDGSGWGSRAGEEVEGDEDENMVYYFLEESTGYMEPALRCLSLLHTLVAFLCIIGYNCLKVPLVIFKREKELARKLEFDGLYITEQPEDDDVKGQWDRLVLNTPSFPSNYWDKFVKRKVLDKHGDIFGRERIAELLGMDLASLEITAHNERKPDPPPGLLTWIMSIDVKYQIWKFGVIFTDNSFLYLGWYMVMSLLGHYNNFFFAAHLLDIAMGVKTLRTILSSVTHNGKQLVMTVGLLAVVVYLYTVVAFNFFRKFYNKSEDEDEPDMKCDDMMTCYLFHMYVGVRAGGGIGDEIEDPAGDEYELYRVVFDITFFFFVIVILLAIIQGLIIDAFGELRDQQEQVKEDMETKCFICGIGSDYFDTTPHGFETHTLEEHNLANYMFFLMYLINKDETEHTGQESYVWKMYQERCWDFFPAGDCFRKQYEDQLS
T1 sequence (P26883 2-108 partner limits assumed): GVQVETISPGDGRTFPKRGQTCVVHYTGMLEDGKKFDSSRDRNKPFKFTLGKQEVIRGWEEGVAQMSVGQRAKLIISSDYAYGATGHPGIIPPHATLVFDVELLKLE

In the case of `COc1ccc2c(c1)CN(C)CCS2` [S107], the “EDL isometric force production” value in the data set with EDL muscle is reported as “increased force production”. Moreover, the “Calstabin1 depletion from RyR1” value on RyR1 [1] was “nearly entirely reversed”. Further, the “duration of the channel dwell times” value on RyR1 [2] was “Neither chronic exercise nor S107 had any effect”. Besides, on RyR1 [2] (Ex+S107 vs Ex+veh, p<0.005), the RyR1 open probability result is on record as “significant decrease”. Further, in the data set on calpain, the calpain activity entry is “reduces calpain activity”. In the data set on RyR (mice), the “blood brain barrier penetration” value is given as “crosses the blood brain barrier”. Besides, the “in vivo binding of calstabin to RyR” value with RyR (mid-brain and cerebellum, after isoproterenol infusion for 5 days) is “restores in vivo binding of calstabin to RyR”.

On to `COc1ccc2c(c1)CN(C(=O)C(=O)O)CCS2` [S36], for which the “plasma levels preventing exercise-induced sudden cardiac death compared with JTV-519” value in the data set with FKBP12.6+/− mice (mouse, in vivo) is reported as “lower plasma levels compared with JTV-519”. For the same compound, the “cardiac arrhythmias and sudden cardiac death” value with FKBP12.6+/− mice (plasma level 0.02 μM) and with FKBP12.6+/− mice (plasma level 1 μM) was “prevent” throughout.
